This assay relates to Plasmodium berghei. Briefly: Luciferase/luciferin-expressing antifolate-resistant parasites were used to infect a culture of HepG2 cells that were pre-incubated with compounds. Infected hepatocytes emit light due to the luciferase reaction. Assay results are presented as the percent inhibition of light emission compared to control. […]. The format is functional. The note with it: sporozoite; for IC90: read-out: LUCIFERASE INFECTION ASSAY - IC90.

Bounds are passed on as bounds.

On to `COCCCN=C(S)NNC(=O)c1ccc(C(C)(C)C)cc1`, for which the IC90 – broadly, the concentration at which the effect reaches the 90% level – was above 10.2 µM. Also, where the note is “PBLUC_HILL_SLOPE 2.41, PBLUC_R_SQUARED 0.0684, read-out: LUCIFERASE INFECTION ASSAY - IC50”, the IC50 (in general, the concentration that inhibits the measured activity by half) was 8.61 µM.

Take `CCC(C)(C)c1ccc(Oc2ccc(NC(=O)COC(=O)C3=COCCO3)cc2)cc1`: the IC90 is above 10 µM. Also, the IC50 (PBLUC_HILL_SLOPE 2.38, PBLUC_R_SQUARED 0.497, read-out: LUCIFERASE INFECTION ASSAY - IC50) amounted to 5.8 µM.

Regarding `Cc1cc(C(=O)COC(=O)c2ccccc2O)c(C)n1CC1CCCO1` (configuration not stated), the IC90 was determined as 7.71 µM. The IC50 (PBLUC_HILL_SLOPE 2.39, PBLUC_R_SQUARED 0.567, read-out: LUCIFERASE INFECTION ASSAY - IC50) was 3.08 µM.

`Cc1cc(C(C)(C)C)cc(C)c1CCNC(=O)NCCNC(=O)c1ccco1`: the IC90 was above 10 µM. Also, where the note is “PBLUC_HILL_SLOPE 2.38, PBLUC_R_SQUARED 0.642, read-out: LUCIFERASE INFECTION ASSAY - IC50”, the IC50 was found to be 5.63 µM.

For `CC(c1ccc(-n2cncn2)cc1)N(C)S(=O)(=O)N1CCc2ccccc2C1` (configuration not stated), the IC90 is above 10 µM. For the same compound, under “PBLUC_HILL_SLOPE 2.44, PBLUC_R_SQUARED 0.756, read-out: LUCIFERASE INFECTION ASSAY - IC50”, the IC50 stood at 6.27 µM.

For the compound `COc1cccc(-c2nc3ccnc(NCCc4ccccc4)c3[nH]2)c1`, the 90% effect concentration (IC90) worked out at 7.63 µM. Also, the IC50 (PBLUC_HILL_SLOPE 2.45, PBLUC_R_SQUARED 0.513, read-out: LUCIFERASE INFECTION ASSAY - IC50) came to 3.11 µM.

On to `Cc1oc2c(c1C(=O)N1CCN(c3ccc(F)cc3)CC1)C(=O)c1ccccc1C2=O`, for which the IC90 is above 10 µM. The half-inhibitory concentration (IC50) (PBLUC_HILL_SLOPE 2.38, PBLUC_R_SQUARED 0.395, read-out: LUCIFERASE INFECTION ASSAY - IC50) is 4.13 µM.

On to `CN1CCN(c2ccc(-c3cn4c(-c5cccc(OC(F)(F)F)c5)cnc4cn3)cn2)CC1`, for which the IC90 was above 7.26 µM. Further, the IC50 (PBLUC_HILL_SLOPE 2.39, PBLUC_R_SQUARED 0.449, read-out: LUCIFERASE INFECTION ASSAY - IC50) is 5.98 µM.

As for `O=C(Cn1cc(C(F)(F)F)ccc1=O)N/N=C/c1c2ccccc2cc2ccccc12`, the IC90 is above 10 µM. The IC50 (PBLUC_HILL_SLOPE 2.42, PBLUC_R_SQUARED 0.423, read-out: LUCIFERASE INFECTION ASSAY - IC50) came to 5.16 µM.

For the compound `C/C(=N\n1c(-c2ccc(OC(F)F)cc2)cs/c1=N\CCc1ccccc1)c1ccc2c(c1)OCO2`, the 90% effect concentration (IC90) was above 10 µM. Also, the half-maximal inhibitory concentration (IC50) (PBLUC_HILL_SLOPE 2.39, PBLUC_R_SQUARED 0.524, read-out: LUCIFERASE INFECTION ASSAY - IC50) is 9.18 µM.

For the compound `Cc1ccc(C)n1-c1nc2cc(C(=O)NC3CC3)ccc2s1`, the IC90 amounted to 7.33 µM. In addition, for the setting “PBLUC_HILL_SLOPE 2.39, PBLUC_R_SQUARED 0.619, read-out: LUCIFERASE INFECTION ASSAY - IC50”, the IC50 was determined as 2.93 µM.

As to `COc1ccc(S(=O)(=O)N2[C@@H]3CC[C@@H](C3)[C@H]2c2nc3c(OCC4CCOCC4)cccc3[nH]2)c(OC)c1`, the IC90 was above 10 µM. For the same compound, for the setting “PBLUC_HILL_SLOPE 2.43, PBLUC_R_SQUARED 0.162, read-out: LUCIFERASE INFECTION ASSAY - IC50”, the IC50 is 8.16 µM.

Regarding `Cc1nc(C(=O)N2CCc3c(c(C(=O)NC4CCCC4)nn3CC(C)C)C2)cs1`, the IC90 worked out at 2.9 µM. Further, the IC50 (PBLUC_HILL_SLOPE 2.42, PBLUC_R_SQUARED 0.681, read-out: LUCIFERASE INFECTION ASSAY - IC50) stood at 1.17 µM.

Turning to `N=C(Nc1cc(Cl)cc(Cl)c1)Nc1ncc(C(=O)c2ccccc2O)cn1`, the IC90 was above 10 µM. In addition, where the note is “PBLUC_HILL_SLOPE 2.46, PBLUC_R_SQUARED 0.348, read-out: LUCIFERASE INFECTION ASSAY - IC50”, the IC50 was 5.29 µM.

As for `O=C1Nc2ccccc2/C1=C/c1cccn1-c1ccc(C(F)(F)F)cc1`, the IC90 was above 9.31 µM. Also, the IC50 (PBLUC_HILL_SLOPE 2.37, PBLUC_R_SQUARED 0.071, read-out: LUCIFERASE INFECTION ASSAY - IC50) turned out to be 5.82 µM.

`O=C(NC1CC1)c1ccc(N2CCN(C(c3ccc(F)cc3)c3ccc(F)cc3)CC2)nc1`: the IC90 is above 10 µM. In addition, where the note is “PBLUC_HILL_SLOPE 2.42, PBLUC_R_SQUARED 0.524, read-out: LUCIFERASE INFECTION ASSAY - IC50”, the IC50 came to 4.87 µM.

For the compound `COc1cc(C(=O)Nc2ccc(C(=O)NC3CC3)cc2)cc(Cl)c1OC(C)C`, the IC90 was above 10 µM. In addition, the IC50 (PBLUC_HILL_SLOPE 2.4, PBLUC_R_SQUARED 0.128, read-out: LUCIFERASE INFECTION ASSAY - IC50) was determined as 6.06 µM.

In the case of `Cc1onc(-c2ccccc2Cl)c1C(=O)ON=C1C2CC3CC(C2)CC1C3`, the IC90 is above 8.57 µM. For the setting “PBLUC_HILL_SLOPE 2.42, PBLUC_R_SQUARED 0.273, read-out: LUCIFERASE INFECTION ASSAY - IC50”, the IC50 was 5.03 µM.

On to `Cc1nc(NCCCn2ccnc2)c2c(-c3cccs3)csc2n1`, for which the 90% effect concentration (IC90) is above 10 µM. Moreover, the IC50 (PBLUC_HILL_SLOPE 2.38, PBLUC_R_SQUARED 0.267, read-out: LUCIFERASE INFECTION ASSAY - IC50) is 6.39 µM.

Regarding `COc1ccc(C(CNC(=O)Cc2coc3c(C)c(C)ccc23)N(C)C)cc1` (configuration not stated), the IC90 was determined as 3.36 µM. Further, the IC50 (PBLUC_HILL_SLOPE 2.38, PBLUC_R_SQUARED 0.44, read-out: LUCIFERASE INFECTION ASSAY - IC50) was 1.33 µM.

For the compound `Cc1nc(-c2ccc3c(c2)CCN3C(=O)C2(C)Cc3ccccc3C(=O)O2)cs1` (configuration not stated), the IC90 was above 10 µM. Further, where the note is “PBLUC_HILL_SLOPE 2.39, PBLUC_R_SQUARED 0.602, read-out: LUCIFERASE INFECTION ASSAY - IC50”, the IC50 was 4.47 µM.

Take `CCCCC1(COC(=O)c2ccc(C(C)(C)C)cc2)C(=O)N(c2ccccc2)N(c2ccccc2)C1=O`: the IC90 was above 6.62 µM. Also, the half-inhibitory concentration (IC50) (PBLUC_HILL_SLOPE 2.41, PBLUC_R_SQUARED 0.52, read-out: LUCIFERASE INFECTION ASSAY - IC50) turned out to be 4.52 µM.

With `CCOc1ccc(NC(=O)c2ccc(F)cc2)cc1S(=O)(=O)N(C)C`, the IC90 was above 10 µM. Also, for the setting “PBLUC_HILL_SLOPE 2.43, PBLUC_R_SQUARED 0.406, read-out: LUCIFERASE INFECTION ASSAY - IC50”, the IC50 amounted to 8.56 µM.

For `CC(C)Cn1c(-c2ccccc2)nc2c(c(=O)c3ccccc3n2C)c1=O`, the 90% effect concentration (IC90) is above 9.18 µM. In addition, where the note is “PBLUC_HILL_SLOPE 2.45, PBLUC_R_SQUARED 0.0531, read-out: LUCIFERASE INFECTION ASSAY - IC50”, the half-inhibitory concentration (IC50) is 6.49 µM.

With `CCn1c(=O)[nH]c(=O)c2cc(C(=O)Nc3ccc(Oc4ccccc4)cc3)cnc21`, the IC90 is above 10 µM. Also, under “PBLUC_HILL_SLOPE 2.4, PBLUC_R_SQUARED 0.0614, read-out: LUCIFERASE INFECTION ASSAY - IC50”, the IC50 worked out at 6.87 µM.

Regarding `CC1(C(=O)NCc2cccnc2)CCN1Cc1ccccc1Cl` (configuration not stated), the IC90 was above 10 µM. In addition, the IC50 (PBLUC_HILL_SLOPE 2.38, PBLUC_R_SQUARED 0.474, read-out: LUCIFERASE INFECTION ASSAY - IC50) stood at 4.27 µM.

As to `C=c1c(Nc2cccc(C(F)(F)F)c2)cc(Nc2cccc(C(F)(F)F)c2)c(O)c1=C`, the concentration for an effect of 90% (IC90) was above 10 µM. Also, the IC50 (PBLUC_HILL_SLOPE 2.41, PBLUC_R_SQUARED 0.317, read-out: LUCIFERASE INFECTION ASSAY - IC50) amounted to 7.29 µM.

With `CC(C)(C)C(=O)Nc1ccc([N+](=O)[O-])cc1C#N`, the IC90 was determined as 4.31 µM. For the setting “PBLUC_HILL_SLOPE 2.44, PBLUC_R_SQUARED 0.671, read-out: LUCIFERASE INFECTION ASSAY - IC50”, the half-maximal inhibitory concentration (IC50) is 1.75 µM.

In the case of `Cn1cc(-c2cnc3cnc(-c4ccccc4)cn23)cn1`, the concentration for an effect of 90% (IC90) is 5.95 µM. Besides, the IC50 (PBLUC_HILL_SLOPE 2.38, PBLUC_R_SQUARED 0.622, read-out: LUCIFERASE INFECTION ASSAY - IC50) amounted to 2.36 µM.

With `O=c1nc(Nc2ccc(Cl)cc2)[nH]nc1Cc1ccc(Cl)cc1`, the IC90 was 5.05 µM. The IC50 (PBLUC_HILL_SLOPE 2.36, PBLUC_R_SQUARED 0.336, read-out: LUCIFERASE INFECTION ASSAY - IC50) came to 1.99 µM.

For `Oc1c(Br)cc(Cl)cc1/C=N/NC(=S)NC1CC1`, the IC90 is above 9.47 µM. For the same compound, the IC50 (PBLUC_HILL_SLOPE 2.42, PBLUC_R_SQUARED 0.376, read-out: LUCIFERASE INFECTION ASSAY - IC50) stood at 4.15 µM.

Turning to `O=C(CC1S/C(=N\c2ccccn2)NC1=O)Nc1ccc(Cl)cc1` (configuration not stated), the IC90 is above 10 µM. For the setting “PBLUC_HILL_SLOPE 2.4, PBLUC_R_SQUARED 0.685, read-out: LUCIFERASE INFECTION ASSAY - IC50”, the IC50 was found to be 5.95 µM.

With `S=C1CCc2ccccc2N1Cc1ccccc1`, the IC90 was above 13 µM. Further, the IC50 (PBLUC_HILL_SLOPE 2.45, PBLUC_R_SQUARED 0.245, read-out: LUCIFERASE INFECTION ASSAY - IC50) is above 13 µM.

With `CC(=O)c1ccc(NC(=O)c2cc(-c3cc(C)ccc3C)nc3ccccc23)cc1`, the IC90 was above 8.37 µM. For the same compound, the IC50 (PBLUC_HILL_SLOPE 2.38, PBLUC_R_SQUARED 0.305, read-out: LUCIFERASE INFECTION ASSAY - IC50) was determined as 4.56 µM.

As to `COc1ccc(C)cc1NC(=O)c1ccc(NC(=O)Nc2ccccc2)s1`, the concentration for an effect of 90% (IC90) was above 10 µM. Moreover, for the setting “PBLUC_HILL_SLOPE 2.41, PBLUC_R_SQUARED 0.229, read-out: LUCIFERASE INFECTION ASSAY - IC50”, the IC50 worked out at 7.11 µM.

Regarding `O=C(Nc1ccc(OC(F)(F)F)cc1)c1cc([N+](=O)[O-])c[nH]c1=O`, the IC90 is above 10 µM. Further, the IC50 (PBLUC_HILL_SLOPE 2.36, PBLUC_R_SQUARED 0.402, read-out: LUCIFERASE INFECTION ASSAY - IC50) was determined as 5.59 µM.
